Test results from patent US6737383B1, “Herbicidal oxadiazolidines” (priority 1999, dated 2004).

Legend:
rape = assay: Test B pre/postemergence rape; format: in vivo, Brassica napus
Summary of the method: (§1)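 Response is a visual 0-to-10 score relative to untreated plants, where 0 means no effect and 10 means complete control, taken twelve to sixteen days after application. Treatments went onto soil at planting and onto foliage of 1- to 4-leaf plants, using a surfactant-containing non-phytotoxic solvent.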

giant foxtail = assay: Test B pre/postemergence giant foxtail; format: in vivo, Setaria faberii
Summary of the method: as §1

wheat = assay: Test B pre/postemergence wheat; format: in vivo, Triticum aestivum
Summary of the method: as §1

velvetleaf = assay: Test B pre/postemergence velvetleaf; format: in vivo, Abutilon theophrasti
Summary of the method: as §1

morningglory = assay: Test B pre/postemergence morningglory; format: in vivo, Ipomoea hederacea
Summary of the method: as §1

cocklebur = assay: Test B pre/postemergence cocklebur; format: in vivo, Xanthium strumarium
Summary of the method: as §1

blackgrass = assay: Test B pre/postemergence blackgrass; format: in vivo, Alopecurus myosuroides
Summary of the method: as §1

soybean = assay: Test B pre/postemergence soybean; format: in vivo, Glycine max
Summary of the method: as §1

surinam grass = assay: Test B pre/postemergence surinam grass; format: in vivo, Brachiaria decumbens
Summary of the method: as §1

wild oat = assay: Test B pre/postemergence wild oat; format: in vivo, Avena fatua
Summary of the method: as §1

crabgrass = assay: Test B pre/postemergence crabgrass; format: in vivo, Digitaria sanguinalis
Summary of the method: as §1

bedstraw = assay: Test B pre/postemergence bedstraw; format: in vivo, Galium aparine
Summary of the method: as §1

sugar beet = assay: Test B pre/postemergence sugar beet; format: in vivo, Beta vulgaris
Summary of the method: as §1

pigweed = assay: Test B pre/postemergence pigweed; format: in vivo, Amaranthus retroflexus
Summary of the method: as §1

purple nutsedge = assay: Test B pre/postemergence purple nutsedge; format: in vivo, Cyperus rotundus
Summary of the method: as §1

corn = assay: Test B pre/postemergence corn; format: in vivo, Zea mays
Summary of the method: as §1

[1] = Postemergence, Rate 62 g/ha, scale 0 to 10, 0 is no effect, 10 is complete control
[2] = Postemergence, Rate 125 g/ha, scale of 0 to 10 where 0 is no effect and 10 is complete control
[3] = Postemergence, Rate 500 g/ha, scale 0 (no effect) to 10 (complete control)
[4] = Rate 62 g/ha, Preemergence, scale 0 to 10
[5] = Rate 125 g/ha, Preemergence, scale 0 to 10 (0 no effect, 10 complete control)
[6] = Rate 250 g/ha, Postemergence, scale 0 to 10, 0 is no effect, 10 is complete control
[7] = Rate 500 g/ha, Preemergence, scale 0 to 10 (0 no effect, 10 complete control)
[8] = Preemergence, Rate 250 g/ha, scale 0 (no effect) to 10 (complete control)
[9] = Rate 62 g/ha, Preemergence, scale 0 (no effect) to 10 (complete control)
[10] = Rate 500 g/ha, Postemergence, scale 0 to 10, 0 is no effect, 10 is complete control

SMILES: CCOC(CC)n1c(=O)on(C(=O)N(c2ccccc2)C(C)C)c1=O (stereo not shown) [Compound 773]
- Plant response rating, Rape (rape; [1]): 0
- Rape plant response rating (rape; [2]): 0
- Rape plant response rating (rape; [3]): 0
- Rape plant response rating (rape; [4]): 0
- Rape plant response rating (rape; [5]): 0
- Rape plant response rating (rape; [6]): 0
- Rape plant response rating (rape; [7]): 0
- Plant response rating, Giant foxtail (giant foxtail; [1]): 0
- Giant foxtail plant response rating (giant foxtail; [2]): 0
- Giant foxtail plant response rating (giant foxtail; [3]): 0
- Giant foxtail plant response rating (giant foxtail; [8]): 0
- Giant foxtail plant response rating (giant foxtail; [4]): 0
- Giant foxtail plant response rating (giant foxtail; [5]): 0
- Giant foxtail plant response rating (giant foxtail; [6]): 0
- Giant foxtail plant response rating (giant foxtail; [7]): 0
- Plant response rating, Wheat (wheat; [1]): 0
- Wheat plant response rating (wheat; [3]): 0
- Wheat plant response rating (wheat; [4]): 0
- Wheat plant response rating (wheat; [5]): 0
- Wheat plant response rating (wheat; [6]): 0
- Wheat plant response rating (wheat; [7]): 0
- Plant response rating, Velvetleaf (velvetleaf; [1]): 0
- Velvetleaf plant response rating (velvetleaf; [3]): 0
- Velvetleaf plant response rating (velvetleaf; [4]): 0
- Velvetleaf plant response rating (velvetleaf; [5]): 0
- Velvetleaf plant response rating (velvetleaf; [6]): 0
- Velvetleaf plant response rating (velvetleaf; [7]): 0
- Plant response rating, Morningglory (morningglory; [1]): 0
- Morningglory plant response rating (morningglory; [2]): 0
- Morningglory plant response rating (morningglory; [3]): 0
- Morningglory plant response rating (morningglory; [4]): 0
- Morningglory plant response rating (morningglory; [5]): 0
- Morningglory plant response rating (morningglory; [6]): 0
- Morningglory plant response rating (morningglory; [7]): 0
- Plant response rating, Cocklebur (cocklebur; [1]): 0
- Cocklebur plant response rating (cocklebur; [2]): 0
- Cocklebur plant response rating (cocklebur; [3]): 0
- Cocklebur plant response rating (cocklebur; [8]): 0
- Cocklebur plant response rating (cocklebur; [4]): 0
- Cocklebur plant response rating (cocklebur; [5]): 0
- Cocklebur plant response rating (cocklebur; [6]): 0
- Cocklebur plant response rating (cocklebur; [7]): 0
- Plant response rating, Blackgrass (blackgrass; [1]): 0
- Blackgrass plant response rating (blackgrass; [2]): 0
- Blackgrass plant response rating (blackgrass; [3]): 0
- Blackgrass plant response rating (blackgrass; [8]): 0
- Blackgrass plant response rating (blackgrass; [4]): 0
- Blackgrass plant response rating (blackgrass; [5]): 0
- Blackgrass plant response rating (blackgrass; [6]): 0
- Blackgrass plant response rating (blackgrass; [7]): 0
- Plant response rating, Soybean (soybean; [1]): 0
- Soybean plant response rating (soybean; [3]): 0
- Soybean plant response rating (soybean; [4]): 0
- Soybean plant response rating (soybean; [5]): 0
- Soybean plant response rating (soybean; [6]): 0
- Soybean plant response rating (soybean; [7]): 0
- Plant response rating, B. signalgrass (surinam grass; [1]): 0
- B. signalgrass plant response rating (surinam grass; [2]): 0
- B. signalgrass plant response rating (surinam grass; [8]): 0
- B. signalgrass plant response rating (surinam grass; [9]): 0
- B. signalgrass plant response rating (surinam grass; [5]): 0
- B. signalgrass plant response rating (surinam grass; [6]): 0
- B. signalgrass plant response rating (surinam grass; [10]): 0
- B. signalgrass plant response rating (surinam grass; [7]): 0
- Plant response rating, Wild oats (wild oat; [1]): 0
- Wild oats plant response rating (wild oat; [3]): 0
- Wild oats plant response rating (wild oat; [4]): 0
- Wild oats plant response rating (wild oat; [5]): 0
- Wild oats plant response rating (wild oat; [6]): 0
- Wild oats plant response rating (wild oat; [7]): 0
- Plant response rating, Crabgrass (crabgrass; [1]): 0
- Crabgrass plant response rating (crabgrass; [2]): 0
- Crabgrass plant response rating (crabgrass; [3]): 0
- Crabgrass plant response rating (crabgrass; [8]): 0
- Crabgrass plant response rating (crabgrass; [4]): 0
- Crabgrass plant response rating (crabgrass; [5]): 0
- Crabgrass plant response rating (crabgrass; [6]): 0
- Crabgrass plant response rating (crabgrass; [7]): 0
- Plant response rating, Bedstraw (bedstraw; [1]): 0
- Bedstraw plant response rating (bedstraw; [2]): 0
- Bedstraw plant response rating (bedstraw; [3]): 0
- Bedstraw plant response rating (bedstraw; [8]): 0
- Bedstraw plant response rating (bedstraw; [4]): 0
- Bedstraw plant response rating (bedstraw; [5]): 0
- Bedstraw plant response rating (bedstraw; [6]): 0
- Bedstraw plant response rating (bedstraw; [7]): 0
- Plant response rating, Sugarbeets (sugar beet; [1]): 0
- Sugarbeets plant response rating (sugar beet; [3]): 0
- Sugarbeets plant response rating (sugar beet; [4]): 0
- Sugarbeets plant response rating (sugar beet; [5]): 0
- Sugarbeets plant response rating (sugar beet; [6]): 0
- Sugarbeets plant response rating (sugar beet; [7]): 0
- Plant response rating, Redroot pigweed (pigweed; [1]): 0
- Redroot pigweed plant response rating (pigweed; [2]): 0
- Redroot pigweed plant response rating (pigweed; [3]): 0
- Redroot pigweed plant response rating (pigweed; [4]): 0
- Redroot pigweed plant response rating (pigweed; [5]): 0
- Redroot pigweed plant response rating (pigweed; [6]): 0
- Redroot pigweed plant response rating (pigweed; [7]): 0
- Plant response rating, Nutsedge (purple nutsedge; [1]): 0
- Nutsedge plant response rating (purple nutsedge; [2]): 0
- Nutsedge plant response rating (purple nutsedge; [3]): 0
- Nutsedge plant response rating (purple nutsedge; [4]): 0
- Nutsedge plant response rating (purple nutsedge; [5]): 0
- Nutsedge plant response rating (purple nutsedge; [6]): 0
- Nutsedge plant response rating (purple nutsedge; [7]): 0
- Plant response rating, Corn (corn; [1]): 0
- Corn plant response rating (corn; [2]): 0
- Corn plant response rating (corn; [3]): 0
- Corn plant response rating (corn; [8]): 0
- Corn plant response rating (corn; [4]): 0
- Corn plant response rating (corn; [5]): 0
- Corn plant response rating (corn; [6]): 0
- Corn plant response rating (corn; [7]): 0

SMILES: CC(C)N(C(=O)n1oc(=O)n(CCCCCl)c1=O)c1ccc(Cl)cc1 [Compound 791]
- Plant response rating, Rape (rape; [1]): 3
- Rape plant response rating (rape; [2]): 3
- Rape plant response rating (rape; [3]): 6
- Rape plant response rating (rape; [4]): 0
- Rape plant response rating (rape; [5]): 0
- Rape plant response rating (rape; [6]): 5
- Plant response rating, Giant foxtail (giant foxtail; [1]): 0
- Giant foxtail plant response rating (giant foxtail; [2]): 2
- Giant foxtail plant response rating (giant foxtail; [3]): 9
- Giant foxtail plant response rating (giant foxtail; [8]): 10
- Giant foxtail plant response rating (giant foxtail; [4]): 10
- Giant foxtail plant response rating (giant foxtail; [5]): 10
- Giant foxtail plant response rating (giant foxtail; [6]): 8
- Giant foxtail plant response rating (giant foxtail; [7]): 10
- Plant response rating, Wheat (wheat; [1]): 0
- Wheat plant response rating (wheat; [3]): 0
- Wheat plant response rating (wheat; [4]): 0
- Wheat plant response rating (wheat; [5]): 0
- Wheat plant response rating (wheat; [6]): 0
- Plant response rating, Velvetleaf (velvetleaf; [1]): 2
- Velvetleaf plant response rating (velvetleaf; [3]): 6
- Velvetleaf plant response rating (velvetleaf; [4]): 0
- Velvetleaf plant response rating (velvetleaf; [5]): 0
- Velvetleaf plant response rating (velvetleaf; [6]): 6
- Velvetleaf plant response rating (velvetleaf; [7]): 0
- Plant response rating, Morningglory (morningglory; [1]): 3
- Morningglory plant response rating (morningglory; [2]): 3
- Morningglory plant response rating (morningglory; [3]): 9
- Morningglory plant response rating (morningglory; [4]): 0
- Morningglory plant response rating (morningglory; [5]): 0
- Morningglory plant response rating (morningglory; [6]): 9
- Morningglory plant response rating (morningglory; [7]): 0
- Plant response rating, Cocklebur (cocklebur; [1]): 0
- Cocklebur plant response rating (cocklebur; [2]): 0
- Cocklebur plant response rating (cocklebur; [3]): 5
- Cocklebur plant response rating (cocklebur; [8]): 0
- Cocklebur plant response rating (cocklebur; [4]): 0
- Cocklebur plant response rating (cocklebur; [5]): 0
- Cocklebur plant response rating (cocklebur; [6]): 0
- Cocklebur plant response rating (cocklebur; [7]): 0
- Plant response rating, Blackgrass (blackgrass; [1]): 0
- Blackgrass plant response rating (blackgrass; [2]): 2
- Blackgrass plant response rating (blackgrass; [3]): 6
- Blackgrass plant response rating (blackgrass; [8]): 7
- Blackgrass plant response rating (blackgrass; [4]): 0
- Blackgrass plant response rating (blackgrass; [5]): 0
- Blackgrass plant response rating (blackgrass; [6]): 5
- Plant response rating, Soybean (soybean; [1]): 4
- Soybean plant response rating (soybean; [3]): 5
- Soybean plant response rating (soybean; [4]): 4
- Soybean plant response rating (soybean; [5]): 4
- Soybean plant response rating (soybean; [6]): 5
- Soybean plant response rating (soybean; [7]): 5
- Plant response rating, B. signalgrass (surinam grass; [1]): 0
- B. signalgrass plant response rating (surinam grass; [2]): 0
- B. signalgrass plant response rating (surinam grass; [8]): 0
- B. signalgrass plant response rating (surinam grass; [9]): 0
- B. signalgrass plant response rating (surinam grass; [5]): 0
- B. signalgrass plant response rating (surinam grass; [6]): 0
- B. signalgrass plant response rating (surinam grass; [10]): 0
- Plant response rating, Wild oats (wild oat; [1]): 0
- Wild oats plant response rating (wild oat; [3]): 0
- Wild oats plant response rating (wild oat; [4]): 0
- Wild oats plant response rating (wild oat; [5]): 0
- Wild oats plant response rating (wild oat; [6]): 0
- Plant response rating, Crabgrass (crabgrass; [1]): 1
- Crabgrass plant response rating (crabgrass; [2]): 4
- Crabgrass plant response rating (crabgrass; [3]): 9
- Crabgrass plant response rating (crabgrass; [8]): 10
- Crabgrass plant response rating (crabgrass; [4]): 6
- Crabgrass plant response rating (crabgrass; [5]): 6
- Crabgrass plant response rating (crabgrass; [6]): 9
- Crabgrass plant response rating (crabgrass; [7]): 10
- Plant response rating, Bedstraw (bedstraw; [1]): 0
- Bedstraw plant response rating (bedstraw; [3]): 3
- Bedstraw plant response rating (bedstraw; [5]): 0
- Bedstraw plant response rating (bedstraw; [6]): 3
- Plant response rating, Sugarbeets (sugar beet; [1]): 0
- Sugarbeets plant response rating (sugar beet; [3]): 5
- Sugarbeets plant response rating (sugar beet; [4]): 0
- Sugarbeets plant response rating (sugar beet; [5]): 0
- Sugarbeets plant response rating (sugar beet; [6]): 2
- Plant response rating, Redroot pigweed (pigweed; [1]): 2
- Redroot pigweed plant response rating (pigweed; [2]): 6
- Redroot pigweed plant response rating (pigweed; [3]): 8
- Redroot pigweed plant response rating (pigweed; [4]): 0
- Redroot pigweed plant response rating (pigweed; [5]): 0
- Redroot pigweed plant response rating (pigweed; [6]): 6
- Plant response rating, Nutsedge (purple nutsedge; [1]): 0
- Nutsedge plant response rating (purple nutsedge; [2]): 0
- Nutsedge plant response rating (purple nutsedge; [3]): 0
- Nutsedge plant response rating (purple nutsedge; [4]): 0
- Nutsedge plant response rating (purple nutsedge; [5]): 0
- Nutsedge plant response rating (purple nutsedge; [6]): 0
- Nutsedge plant response rating (purple nutsedge; [7]): 0
- Plant response rating, Corn (corn; [1]): 0
- Corn plant response rating (corn; [2]): 0
- Corn plant response rating (corn; [3]): 1
- Corn plant response rating (corn; [8]): 0
- Corn plant response rating (corn; [4]): 0
- Corn plant response rating (corn; [5]): 0
- Corn plant response rating (corn; [6]): 1
- Corn plant response rating (corn; [7]): 0
